Results on 6 compounds are retold here after US20250163043A1 (TRANSTHERA SCIENCES (NANJING), INC., priority 2021, published 2025).

The target in one test is CDK9/CycT1 (Homo sapiens, UniProt P50750). As to the kind of experiment: ADP-Glo kinase assay on CDK enzymatic activity, CDK9/CycT1. Format: biochemical. The following applies: 10 concentrations from 10 μM, 4-fold, 60 min room temperature. The procedure, abridged: (§1)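 IC50 values derive from luminescent ADP detection (ADP-Glo) after a 60 min room-temperature kinase reaction with CDK tide and ATP. Dose range: 10 μM down in 4-fold steps, ten points.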
Sequence of CDK9/CycT1 (P50750 whole entry): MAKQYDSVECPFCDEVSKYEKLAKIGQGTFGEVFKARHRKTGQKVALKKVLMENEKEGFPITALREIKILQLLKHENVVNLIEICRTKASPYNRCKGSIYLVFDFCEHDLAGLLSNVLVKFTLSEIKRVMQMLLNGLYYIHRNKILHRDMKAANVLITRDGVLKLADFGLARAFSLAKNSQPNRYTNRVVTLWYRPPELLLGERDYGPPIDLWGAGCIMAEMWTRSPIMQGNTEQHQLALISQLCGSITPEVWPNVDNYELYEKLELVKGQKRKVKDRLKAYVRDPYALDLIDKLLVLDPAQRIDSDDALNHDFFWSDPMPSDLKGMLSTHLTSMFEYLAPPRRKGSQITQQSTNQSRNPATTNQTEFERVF
Sequence of CDK9/CycT1 (O60563 whole entry partner): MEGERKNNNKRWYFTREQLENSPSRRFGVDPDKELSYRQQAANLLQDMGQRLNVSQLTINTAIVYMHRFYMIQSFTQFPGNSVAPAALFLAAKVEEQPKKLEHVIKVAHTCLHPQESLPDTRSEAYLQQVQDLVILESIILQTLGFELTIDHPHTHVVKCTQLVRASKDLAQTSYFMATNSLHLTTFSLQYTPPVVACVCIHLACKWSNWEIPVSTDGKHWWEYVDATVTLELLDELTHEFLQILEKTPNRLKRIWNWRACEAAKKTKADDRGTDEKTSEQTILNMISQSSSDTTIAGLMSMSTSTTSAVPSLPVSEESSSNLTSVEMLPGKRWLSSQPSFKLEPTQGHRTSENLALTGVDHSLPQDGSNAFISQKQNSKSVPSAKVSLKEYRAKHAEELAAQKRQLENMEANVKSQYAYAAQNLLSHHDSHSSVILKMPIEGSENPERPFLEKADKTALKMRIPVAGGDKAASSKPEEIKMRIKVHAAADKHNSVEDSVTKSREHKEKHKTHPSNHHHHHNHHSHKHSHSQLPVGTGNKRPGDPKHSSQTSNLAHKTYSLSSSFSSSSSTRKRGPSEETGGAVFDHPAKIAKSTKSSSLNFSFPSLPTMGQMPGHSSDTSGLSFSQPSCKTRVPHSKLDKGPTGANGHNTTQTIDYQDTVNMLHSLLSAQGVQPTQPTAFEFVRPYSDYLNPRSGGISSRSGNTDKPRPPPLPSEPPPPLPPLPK

A further test addresses CDK1/CycE1 (Homo sapiens, UniProt P06493). As to the kind of experiment: ADP-Glo kinase assay on CDK enzymatic activity, CDK1/CycE1. The format is biochemical. The settings on record: ADP-Glo; 10 concentrations from 10 μM, 4-fold; 60 min room temperature; read-out: CDK1/CycE1/nM (IC50). In short, it runs like this: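 Compounds in 10-point 4-fold dilutions from 10 μM final, preincubated 10 min with kinase, then substrate/ATP added; 60 min reaction at room temperature. ADP-Glo luminescence read.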

A further test has as its target CDK2/CycA2 (Homo sapiens, UniProt P24941). As to the kind of experiment: ADP-Glo kinase assay on CDK enzymatic activity, CDK2/CycA2. The following applies: 10 concentrations from 10 μM, 4-fold, 60 min room temperature. Format: biochemical. In short, it runs like this: as §1
In general terms: In ADP-Glo the light output rises with the ADP produced.

The next test addresses CDK3/CycE1 (Homo sapiens, UniProt Q00526). As to the kind of experiment: ADP-Glo kinase assay on CDK enzymatic activity, CDK3/CycE1. Format: biochemical. The following applies: 10 concentrations from 10 μM, 4-fold, 60 min room temperature. In short, it runs like this:
as §1

The target of another test is CDK5/p25NCK (Homo sapiens, UniProt Q00535). As to the kind of experiment: ADP-Glo kinase assay on CDK enzymatic activity, CDK5/p25NCK. The format is biochemical. The following applies: 10 concentrations from 10 μM, 4-fold, 60 min room temperature. The procedure, abridged:
as §1

Test [1] concerns NCI-H929 (human myeloma cells). As to the kind of experiment: CCK-8 cell proliferation assay, NCI-H929. The format is cell-based. The following applies: 72 h incubation, 11 concentrations from 5000 nM, 3-fold. How it is done: Test samples: the compounds of the present invention, having structures shown above.
RMPI 1640, Fetal Bovine Serum (FBS), a CCK-8 method cell proliferation assay kit, DMSO (dimethyl sulfoxide), a 96-well cell culture plate, an Iscov'Modified Dulbecco's culture medium (IMDM), a multifunctional microplate reader,
MV-4-11 (human myelomonocytic leukemia cells) and NCI-H929 (human myeloma cells).
The compounds were dissolved in DMSO and diluted 3-fold in the 96-well plate to obtain stock solutions with 11 concentration gradients. Each cell was inoculated into a 96-well plate, and the diluted compound stock solution was added to the 96-well plate to obtain a series of 11 concentration gradients of compound solutions with final concentrations of 5000 nM starting and 3-fold gradient decreasing, wherein the final DMSO content was […]. There was a medium containing 1‰ DMSO in the negative control well. The treated cells were incubated at 37° C. with 5% CO2 and 95% humidity, wherein MV-4-11 were incubated for 24 h and NCI-H929 for 72 h. After incubation was completed, each well was added with 10 μL of CCK-8 reagent, incubated for 1-3 h at room temperature and placed in the microplate reader, and the absorbance was read at 450 nm.
The inhibition rate was calculated according to the following formula: […]
ODcmpd: compound absorbance; ODpositive: average value of the absorbance of positive control without compound; ODvehicle: average value of the absorbance of solvent vehicle control.
IC50 values were fitted using GraphPad 7.0 based on inhibition rates of compounds at different concentrations.
A general note: Tetrazolium assays rely on reduction of a dye to a coloured formazan, in cell work by metabolically active cells.

Sequence of CDK3/CycE1 (Q00526 whole entry, species assumed): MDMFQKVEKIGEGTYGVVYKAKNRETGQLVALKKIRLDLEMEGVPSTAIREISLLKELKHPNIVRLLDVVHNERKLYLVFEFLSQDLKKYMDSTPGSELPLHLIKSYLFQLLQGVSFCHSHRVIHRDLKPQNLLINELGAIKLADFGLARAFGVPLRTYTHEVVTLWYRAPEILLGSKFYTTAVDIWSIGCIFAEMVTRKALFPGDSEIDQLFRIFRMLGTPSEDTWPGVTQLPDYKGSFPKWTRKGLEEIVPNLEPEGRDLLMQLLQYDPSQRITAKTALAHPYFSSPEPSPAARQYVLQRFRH
Sequence of CDK3/CycE1 (P24864 whole entry partner, species assumed): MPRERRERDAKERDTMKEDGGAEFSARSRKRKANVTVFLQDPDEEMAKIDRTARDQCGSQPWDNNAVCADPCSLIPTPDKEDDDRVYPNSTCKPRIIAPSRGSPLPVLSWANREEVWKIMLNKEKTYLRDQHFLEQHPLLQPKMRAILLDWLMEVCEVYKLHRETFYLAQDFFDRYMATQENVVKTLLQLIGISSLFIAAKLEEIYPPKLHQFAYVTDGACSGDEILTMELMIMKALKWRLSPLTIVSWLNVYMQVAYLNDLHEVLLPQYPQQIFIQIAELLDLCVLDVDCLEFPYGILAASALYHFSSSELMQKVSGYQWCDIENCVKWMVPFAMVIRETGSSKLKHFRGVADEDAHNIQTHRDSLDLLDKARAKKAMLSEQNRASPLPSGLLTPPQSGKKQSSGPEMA
Sequence of CDK5/p25NCK (Q00535 whole entry, species assumed): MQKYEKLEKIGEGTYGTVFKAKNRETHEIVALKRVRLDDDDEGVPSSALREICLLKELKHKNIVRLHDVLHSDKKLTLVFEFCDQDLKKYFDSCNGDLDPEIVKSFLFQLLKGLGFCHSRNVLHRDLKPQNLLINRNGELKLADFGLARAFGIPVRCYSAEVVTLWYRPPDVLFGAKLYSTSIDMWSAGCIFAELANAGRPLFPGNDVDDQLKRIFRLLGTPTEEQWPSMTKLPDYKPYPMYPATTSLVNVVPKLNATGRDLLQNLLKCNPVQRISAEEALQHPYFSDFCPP
Sequence of CDK5/p25NCK (Q15078 99-307 partner limits assumed, species assumed): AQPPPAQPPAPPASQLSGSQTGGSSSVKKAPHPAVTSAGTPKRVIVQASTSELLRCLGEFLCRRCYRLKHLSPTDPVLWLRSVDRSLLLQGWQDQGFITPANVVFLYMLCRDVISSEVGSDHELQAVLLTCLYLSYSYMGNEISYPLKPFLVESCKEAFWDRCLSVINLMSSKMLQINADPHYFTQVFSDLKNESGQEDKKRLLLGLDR
Sequence of CDK1/CycE1 (P06493 whole entry, species assumed): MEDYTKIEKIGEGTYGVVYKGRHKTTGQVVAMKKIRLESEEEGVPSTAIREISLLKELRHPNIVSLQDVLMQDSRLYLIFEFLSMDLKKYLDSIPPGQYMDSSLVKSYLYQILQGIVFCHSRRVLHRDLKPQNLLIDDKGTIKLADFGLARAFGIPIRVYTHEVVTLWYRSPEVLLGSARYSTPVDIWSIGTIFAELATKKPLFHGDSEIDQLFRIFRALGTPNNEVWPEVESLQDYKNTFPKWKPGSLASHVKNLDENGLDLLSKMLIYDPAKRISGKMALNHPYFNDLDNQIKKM
Sequence of CDK1/CycE1 (P24864 whole entry partner, species assumed): as the sequence (P24864 whole entry partner, species assumed) above

For the compound `CC(C)Nc1nc(C#N)cc2cnc(N[C@H]3CC[C@H](N)C3)cc12` [Compound 28, 7-(((1S,3S)-3-aminocyclopentyl)amino)-1-(isopropylamino)-2,6-naphthyridine-3-carbonitrile], the IC50 on CDK9/CycT1 was determined as 3 nM; at CDK1/CycE1, 220 nM; at CDK2/CycA2, 50 nM; against CDK3/CycE1 it was 97 nM; against CDK5/p25NCK it was 96 nM; in test [1], 25 nM.

For `CC(C)Nc1nc(C#N)cc2cnc(N[C@@H]3CC[C@@H](N)C3)cc12` [Compound 30, 7-(((1R,3R)-3-aminocyclopentyl)amino)-1-(isopropylamino)-2,6-naphthyridine-3-carbonitrile], the IC50 is 2 nM at CDK9/CycT1; 15 nM at CDK2/CycA2; 95 nM against CDK3/CycE1; 31 nM against CDK5/p25NCK; 14 nM in test [1].

`CC(C)Nc1nc(C#N)cc2cnc(N[C@H]3CC[C@H](O)C3)cc12` [Compound 33, 7-(((1S,3S)-3-hydroxycyclopentyl)amino)-1-(isopropylamino)-2,6-naphthyridine-3-carbonitrile]: the IC50 against CDK9/CycT1 is 1 nM; against CDK2/CycA2, 3 nM; at CDK3/CycE1 it was 9 nM; against CDK5/p25NCK it was 3 nM; in test [1], 8 nM.

Consider `CC(C)Nc1nc(C#N)cc2cnc(N[C@H]3CC[C@H](N)C3)nc12` [Compound 45, 2-(((1S,3S)-3-aminocyclopentyl)amino)-8-(isopropylamino)pyrido[3,4-d]pyrimidine-6-carbonitrile], for which the IC50 is 2 nM at CDK9/CycT1; 114 nM at CDK1/CycE1; 47 nM against CDK2/CycA2; 85 nM against CDK3/CycE1; 153 nM on CDK5/p25NCK; 22 nM in test [1].

Consider `CC(C)Nc1nc(C(F)F)cc2cnc(N[C@H]3CC[C@H](N)C3)cc12` [Compound 52, N^7-((1S,3S)-3-aminocyclopentyl)-3-(difluoromethyl)-N^1-isopropyl-2,6-naphthyridine-1,7-diamine], for which the IC50 at CDK9/CycT1 stood at 1 nM; at CDK2/CycA2, 12 nM; against CDK3/CycE1 it was 23 nM; against CDK5/p25NCK, 16 nM; in test [1], 9 nM.

For `CC(C)Nc1nc(C#N)cc2cnc(N[C@H]3CCCNC3)nc12` [Compound 55, (S)-8-(isopropylamino)-2-(piperidin-3-ylamino)pyrido[3,4-d]pyrimidine-6-carbonitrile], the IC50 is 1 nM at CDK9/CycT1; 43 nM on CDK1/CycE1; 60 nM on CDK2/CycA2; 24 nM against CDK3/CycE1; 56 nM on CDK5/p25NCK; 26.1 nM in test [1].
